# Legend:
# [1] = Cytotoxicity assay in mammalian cells (MTT), macrophages, 48 h; format: cell-based; conditions: mouse, J774 A1 macrophages, pH 7.2; 50 % inhibition of macrophages growth, 48 h, MTT
# Description: (§1) The antiproliferative activity was determined in promastigote forms of Leishmania amazonensis (WHOM/BR/75/JOSEFA strain) and epimastigote forms of Trypanosoma cruzi (Y strain). The promastigote forms of L. amazonensis were cultured in Warren medium (brain heart infusion, hemin, and folic acid; pH 7.4) supplemented with 10 % fetal bovine serum (FBS) at 25 °C. The epimastigote forms of T.cruzi were cultured in LIT medium (liver infusion tryptose; hemin, and folic acid; pH 7.4) supplemented with 10 % FBS at 28 °C. Cytotoxicity in mammalian cells was determined in fibroblast line (L929) and macrophages (J774 A1). Fibroblasts were cultured in DMEM medium (pH 7.2) supplemented with 10 % FBS at 37 °C in a 5 % CO2 atmosphere. Macrophages were cultured in RPMI‐1640 (pH 7.2) medium supplemented with 10 % FBS at 37 °C in a 5 % CO2 atmosphere.
# (§2) Stock solutions of the compounds were prepared in DMSO and then diluted in the respective medium.
# (§3) Fibroblast cell (2.5×10^5 cells.mL^−1) suspensions were prepared in DMEM medium supplemented with 10 % FBS and added to 96‐well plates. Then, the plates were incubated at 37 °C in a CO2 atmosphere for 24 h to obtain confluent cell growth. After incubation, cells were treated with different concentrations of compounds diluted in DMEM for 72 h or left untreated. Macrophage (5×10^5 cells.mL^−1) suspensions were prepared in RPMI‐1640 medium supplemented with 10 % FBS and added to 96‐well plates. Then, the plates were incubated at 37 °C in a CO2 atmosphere for 24 h to obtain confluent cell growth. After incubation, cells were treated with different concentrations of compounds diluted in RPMI‐1640 for 48 h or left untreated. After treatment, the medium was removed, and cells were incubated with MTT (2 mg.mL^−1) for 4 h. Then, DMSO was added for solubilization of the formazan and analyzed with a reading microplate reader (BIO‐TEK PowerWave XS spectrophotometer) at […].[20] The percentage of viable cells was calculated in relation to the untreated control group to determine the cytotoxic concentration in 50 % of the cells (CC50). The control groups of each experiment received the same experimental conditions as the treated groups (cell concentration used, temperature, CO2, and incubation time).
# [2] = system: promastigote forms of Leishmania amazonensis (WHOM/BR/75/JOSEFA strain); test: Antiproliferative assay (XTT), promastigote forms, 72 h; format: cell-based; conditions: for IC50: Leishmania amazonensis, promastigote form, 72 h, XTT, read-out: L. amazonensis IC50; for SIL-F, selectivity index (Fibroblast CC50/L. amazonensis IC50): fibroblast vs promastigote; for SIL-M, selectivity index (Macrophages CC50/L. amazonensis IC50): macrophages vs promastigote
# Description: as §1, §2
# (§4) Promastigote forms (1×10^6 parasites.mL^−1) were cultured in 96‐well plates in the presence and absence of different concentrations of compounds diluted in Warren medium supplemented with 10 % FBS and incubated for 72 h. The epimastigote forms (1×10^6 parasites.mL^−1) were cultured in 96‐well plates in the presence and absence of different concentrations of compounds diluted in LIT medium supplemented with 10 % FBS and incubated for 96 h. After treatment, the parasites were incubated with a solution of 2,3‐bis(2‐methoxy‐4‐nitro‐5‐sulfophenyl)‐2H‐tetrazolium‐5‐carboxanilide (XTT; 0.5 mg.mL^−1) and phenazine methanesulfonate activator (PMS; 0.06 mg.mL^−1) in PBS for 4 h. Then, the absorbance was read in a microplate reader (Bio Tek‐Power Wave XS) at 450 nm.[20] The percentage of viable parasites was calculated in relation to the control in order to determine the concentration that inhibits 50 % of the protozoa (IC50). The control groups of each experiment received the same experimental conditions as the treated groups (cell concentration used, temperature, and incubation time).
# [3] = system: epimastigote forms of Trypanosoma cruzi (Y strain); test: Antiproliferative assay (XTT), epimastigote forms, 96 h; format: cell-based; conditions: for IC50: Trypanosoma cruzi, epimastigote form, 96 h, XTT, read-out: T. cruzi IC50; for SIT-F, selectivity index (Fibroblast CC50/T. cruzi IC50): fibroblast vs epimastigote; for SIT-M, selectivity index (Macrophages CC50/T. cruzi IC50): macrophages vs epimastigote
# Description: as §1, §2, §4
# [4] = Cytotoxicity assay in mammalian cells (MTT), fibroblasts, 72 h; format: cell-based; conditions: mouse, L929 fibroblast cells, pH 7.2; 50 % inhibition of fibroblast growth, 72 h, MTT
# Description: as §1, §2, §3
SMILES,CC50 at 48 h [1] [µM],melting point [°C],IC50 [2] [µM],"SIL-F, selectivity index (Fibroblast CC50/L. amazonensis IC50) [2]","SIL-M, selectivity index (Macrophages CC50/L. amazonensis IC50) [2]",IC50 [3] [µM],"SIT-F, selectivity index (Fibroblast CC50/T. cruzi IC50) [3]","SIT-M, selectivity index (Macrophages CC50/T. cruzi IC50) [3]",CC50 at 72 h [4] [µM]
COc1ccc(NCc2c(C(=O)N/N=C/c3ccccc3)noc2-c2ccc(F)cc2)cc1 [4 cc],300 ± 8.9,181.7 to 185.5,56.3 ± 8.5,5.46,5.32,78.6 ± 7.4,3.91,3.81,308 ± 9.8
O=C(N/N=C/c1ccccc1)c1noc(-c2ccc(Cl)cc2)c1CNc1ccccc1 [4 da],236 ± 9.6,189.3 to 191.8,48.6 ± 2.8,5.46,4.85,49.7 ± 2.2,5.34,4.74,266 ± 5.9
O=C(N/N=C/c1ccccc1)c1noc(-c2ccc(Cl)cc2)c1CNc1ccc(Cl)cc1 [4 db],395 ± 9.9,167.5 to 169.3,67.4 ± 3.9,6.00,5.86,71 ± 4.7,5.70,5.56,404.7 ± 4
COc1ccc(NCc2c(C(=O)N/N=C/c3ccccc3)noc2-c2ccc(Cl)cc2)cc1 [4 dc],245 ± 7.9,176.3 to 177.1,54.3 ± 2.7,5.45,4.50,65.9 ± 6.1,4.49,3.71,296 ± 9
"O=C(N/N=C/c1ccccn1)c1noc(-c2ccc([N+](=O)[O-])cc2)c1CNc1ccccc1 [5 aa, 3‐[(2E)‐N'‐(2‐pyridinylmethylene)hydrazinecarbonyl]‐4‐(phenyl)aminomethyl‐5‐(4‐nitrophenyl)isoxazole]",388 ± 7.9,223.8 to 225.5,126 ± 2.1,3.24,3.09,123 ± 10.9,3.31,3.16,407.3 ± 3.9
O=C(N/N=C/c1ccccn1)c1noc(-c2ccccc2)c1CNc1ccccc1 [5 ba],303 ± 9.5,194.8 to 195.6,35.8 ± 4.8,9.20,8.47,33.6 ± 4.4,9.80,9.02,330 ± 5.6
O=C(N/N=C/c1ccccn1)c1noc(-c2ccccc2)c1CNc1ccc(Cl)cc1 [5 bb],301 ± 5.9,209.3 to 211.7,27.8 ± 4.1,12.38,11.01,26.9 ± 0.9,12.57,11.18,338 ± 8.6
O=C(N/N=C/c1ccccn1)c1noc(-c2ccc(F)cc2)c1CNc1ccccc1 [5 ca],374 ± 5.8,157.7 to 159.6,74.8 ± 2.9,5.38,5.01,69.5 ± 3.7,5.79,5.38,403 ± 8.6

# From paper PMC8485799, “Synthesis and Antiprotozoal Profile of 3,4,5‐Trisubstituted Isoxazoles” (ChemistryOpen, 2021)
